Laboratory results from US9302993B2, “8-hydroxy quinoline derivatives” (PRANA BIOTECHNOLOGY LIMITED, priority 2002, dated 2016).
Several values for one entry are separate records, joined by “and”; a condition that tells them apart may be missing. Equal entries are not always repeated. Where two headings read alike, the source gives them in different places.

Assays:
Neuronal cortical cells = assay: Assay for test compound cytoxicity, MTS (Assay 3(d)); format: cell-based, mouse
[1] = target: T1, hydrogen peroxide generation by Aβ in the presence of copper (Homo sapiens, UniProt P05067); assay: Fluorometric H2O2 assay (Assay 1); format: biochemical; details: DCF/HRP, 37 C 60 min, several values in one cell = repeat determinations
T1 construct: The reaction solutions contained Aβ 1-42 at concentrations in the range of 50 nM to 1 μM
T1 sequence (P05067 672-713 limits assumed): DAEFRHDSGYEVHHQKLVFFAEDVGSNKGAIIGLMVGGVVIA
In short: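 Aβ1-42 (50 nM–1 μM) with Cu-glycine (2 Cu-Gly : 1 Aβ) and a reductant (dopamine 5 μM or ascorbic acid) was incubated 60 min at 37 °C in PBS pH 7.4 with test compound. H2O2 was detected with 100 μM deacetylated DCF and 0.1 μM HRP by fluorescence against H2O2 standards.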

[2] = system: Aβ in extract of tissue from post mortem human AD brain; assay: Human brain amyloid solubilisation assay (Assay 9, BAS); format: biochemical
Method: Assay 9. Human Brain Amyloid Solubilisation Assay
This assay was performed in order to assess the ability of a test compound to mobilise Aβ from the insoluble to the soluble phase of an extract of tissue from post mortem human AD brain.
Up to 0.5 g of plaque-bearing cortex without meninges was homogenized using a DIAX 900 homogenizer (Heudolph and Co, Kelheim, Germany) or other suitable device for three 30-second periods at full speed in 2 ml of ice-cold phosphate-buffered saline, pH 7.4. To obtain the phosphate-buffered saline-extractable fraction, the homogenate was centrifuged at 100,000×g for 30 min and the supernatant removed. Alternatively, the tissue was freeze dried then pulverised to form a powder which was then weighed out into aliquots for extraction as above. Supernatant, either freeze-dried and resuspended or in unconcentrated form, was dissolved in 200 μl of Tris-Tricine sodium dodecyl sulfate (SDS) sample buffer pH 8.3 containing 8% SDS, 10% 2-mercaptoethanol. Aliquots (10 μl) were then boiled for 10 minutes before SDS-polyacrylamide gel electrophoresis. The insoluble fraction of the cortical samples was obtained by resuspending the initial pelleted sample in 1 ml of phosphate-buffered saline. A 50-μl aliquot of this suspension was then boiled in […] of sample buffer as above.
Tris-Tricine polyacrylamide gel electrophoresis was performed by loading appropriately diluted samples on to 10% to 20% gradient gels (Novex, San Diego, Calif.) followed by transfer on to 0.2-μm nitrocellulose membrane (Bio-Rad, Hercules, Calif.). Aβ was detected by using monoclonal antibody W02, which detects residues 5 through 8, […] (or another suitable antibody) in conjunction with horseradish peroxidase-conjugated rabbit anti-mouse IgG (Dako, Denmark), and visualized by using enhanced chemiluminescence (eg ECL; Amersham Life Science, Buckinghamshire, UK). Each gel included three lanes containing 0.5, 1, and 2 ng of synthetic Aβ40 (Keck Laboratory, Yale University, New Haven, Conn.) as reference standards.
Blot films were scanned by using a suitable imaging system such as the UVP gel documentation system, and densitometry performed using suitable software, eg UVP Labworks. The dynamic range of the film/scanner was determined by using a step tablet (No. 911ST600, Kodak, Rochester N.Y.), a calibrated film exposed by the manufacturer to provided steps of known increasing intensity. The quantifiable range of signal intensity for densitometric analysis of the mono- and dimeric Aβ bands was based on the comparison with a curve obtained by scanning and densitometry of the step tablet.
All samples were analysed at least twice, and gel loadings and dilutions were adjusted to fit within the quantifiable region of the standard curve. […] The insoluble Aβ being comprised of the pelletable fraction derived from the insoluble amyloid plaque from the above cortical samples and the soluble fraction comprising monomeric and/or oligomeric soluble Aβ.

[3] = system: Neuronal cortical cells treated with Aβ1-42; assay: Assay for Aβ neurotoxicity and Aβ neuroprotection (Assay 3(c)); format: cell-based, mouse; details: 20 uM Aβ1-42, 4 days, MTS
Method: Media was then replaced with Neurobasal media (Invitrogen Life Technologies) and B27 supplements (Invitrogen Life Technologies). Cultures were maintained at 37° C. in 5% CO2. Prior to experimentation, the culture medium was replaced with Neurobasal media and B27 minus antioxidants (Invitrogen Life Technologies).
(c) Assay for Aβ Neurotoxicity and Aβ Neuroprotection
Neuronal cortical cells were cultured for five days as per Assay 2. On day six the neurobasal (NB) media (Invitrogen Life Technologies) and B27 supplement (Invitrogen Life Technologies) were replaced with NB media and B27 supplement (no antioxidants). On day six, test compounds were individually added to the neuronal cell cultures:
Aβ was initially dissolved in 20 mM NaOH to a concentration of 1 mM and sonicated for 5 minutes. The peptide was then diluted in H2O and 10×PBS to a final concentration of 200 uM Aβ in 1×PBS. The peptide was again sonicated for 5 minutes and then spun at 14000 rpm for 5 min and transferred to a fresh tube.
The test compounds were dissolved in 100% DMSO to a concentration of 2.5 mM (10 mM if excess compound was weighed out per vial—then diluted to 2.5 mM). […] Test compounds were not added directly to cells, instead they were added to a 48 well ‘Drug Plate’ as comprised below:
The Drug Plate was incubated at 37° C. for 15 mins. 200 ul of each well was added in triplicate to the corresponding cell plate. The cell plate was incubated at 37 C, for 4 days.
On the 4th day after treating the cells the assay is completed by adding MTS to the cells.

[4] = BL6J×129sv, mouse, 4 days, 1 uM
[5] = BL6J×129sv, mouse, 4 days, 10 uM
[6] = Aβ 1-42 with Cu-Gly, read-out: Peroxide IC50
[7] = solubilising plaques relative to PBS
[8] = Peroxide IC50, Aβ 1-42 with Cu-Gly

SMILES	Test Compound Cytoxicity 0.1 um (Neuronal cortical cells; BL6J×129sv, mouse, 4 days)	Test Compound Cytoxicity 1 uM (Neuronal cortical cells; [4])	Test Compound Cytoxicity 10 uM (Neuronal cortical cells; [5])	IC50 [1, 6]	BAS Score [2, 7]	% inhibition Abeta toxicity [3]	Viable 10 uM (Neuronal cortical cells; [5])	IC50 [1, 8]	Cell viability (% viable cells, MTS) (Neuronal cortical cells; 1 uM, 4 days, in %)	Viable 10 uM (Neuronal cortical cells; 10 uM test compound, repeated lines = repeat determinations, in %)	Cell viability (% viable cells, MTS) (Neuronal cortical cells; 10 uM, 4 days, in %)	Cell viability (% viable cells, MTS) (Neuronal cortical cells; 0.1 um, 4 days)	BAS Score [2]
Oc1c(I)cc(Cl)c2cccnc12 [compound 1, clioquinol, reference compound]	78%	90	77	400 to 500 nM	++	16%							
O=S(=O)(O)c1ccc(O)c2ncccc12 [compound 41]	95%	100	100		+	12%	81.33	500 nM					
Oc1c(Cl)cc(Cl)c2cccnc12 [compound 45]	100%	92	67	700 nM	++	28%							
CCCCN(c1ccc2cccc(O)c2n1)c1ccc2cccc(O)c2n1 [compound 53]	96%	95	100	300 nM	+	−75%	95.8						
Nc1ccc2cccc(O)c2n1 [compound 54]						100%		1000 nM	97	99.57	61	89%	+
CN(c1ccc2cccc(O)c2n1)c1ccc2cccc(O)c2n1 [compound 56]	108%	74	31	700 nM	+	17%							
Oc1ccc(/C=C/c2ccc3cccc(O)c3n2)cc1 [compound 89]	87%	92	101	3000 nM	+	−31%	74.28						
Oc1c(Br)cc(-c2ccccc2)c2cccnc12 [compound 806]	99%	78	38	< 1200 nM	++	36%							
COc1cccc(-c2cc(Cl)c3cccnc3c2O)c1 [compound 810]	100%	85	57	> 10000 nM	+	11%							
Cc1ccccc1-c1cc(Cl)c2cccnc2c1O [compound 854]	94%	81	36	< 780 nM	+	22%							
Oc1ccccc1-c1cc(Cl)c2cccnc2c1O [compound 947]	100%	94	51		+	3%	70.4						
O=C(NCCc1c[nH]cn1)c1ccc2cccc(O)c2n1 [compound 948]	100%	79	85	190 nM	+	9%	106.66						
O=C(NCCc1ccccn1)c1ccc2cccc(O)c2n1 [compound 950]	95%	88	89	250 nM	+	5%	92.8						
O=C(Nc1nccs1)c1ccc2cccc(O)c2n1 [compound 952]	98%	91	53	< 810 nM	+	13%	99.52						
Cc1cnc(NC(=O)c2ccc3cccc(O)c3n2)s1 [compound 953]	101%	85	53	< 4240 nM and 620 nM	+	25%	67.8						
NCc1ccc2cccc(O)c2n1 [compound 968]	103%	87	82		++	6%	97.12						
O/N=C/c1ccc2cccc(O)c2n1 [compound 969, 8-Hydroxy-quinoline-2-carboxaldehyde Oxime]	91%	92	90		+	2%	94.55						
Nc1ccccc1NC(=O)c1cc(O)c2cccc(O)c2n1 [compound 986]	96%	85	60		+	7%	81.73						
O=C(CNC(=O)c1cc(O)c2cccc(O)c2n1)NCCc1c[nH]cn1 [compound 987]	92%	90	87		+	5%	89.03						
CN(CCc1ccccn1)Cc1ccc2cccc(O)c2n1 [compound 990]	95%	88	57		+	18%	57.45						
Oc1cccc2ccc(-c3ccccn3)nc12 [compound 1006]		92	52		++	7%							
